Reference: ChEMBL document CHEMBL1201862, “PubChem BioAssay data set” (2004)
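Compound exposure: 48 hours, 5 concentrations, 96-well plates. GI50 is the concentration that inhibits growth by half.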 The source made the active and inactive calls. Rule as the data show it: active = GI50 up to about 1.1 µM and inactive = higher.

Key:
Test in all cases: inhibition of tumour cell growth, NCI panel, 48 h
[1] = system: A549
[2] = system: HCT-15
[3] = system: IGROV-1
[4] = system: PC-3
[5] = system: UACC-257
[6] = system: CCRF-CEM
[7] = system: CAKI-1
[8] = system: NCI-H23
[9] = system: SNB-19
[10] = system: EKVX
[11] = system: T47D
[12] = system: OVCAR-4
[13] = system: U-251
[14] = system: MCF7
[15] = system: SN12C
[16] = system: SK-MEL-2
[17] = system: SNB-75

## COc1ccc(C(OCC2OC3(COC(c4ccccc4)(c4ccc(OC)cc4)c4ccc(OC)cc4)C(Oc4nc(=O)ccn43)C2O)(c2ccccc2)c2ccc(OC)cc2)cc1 (stereo unspecified)
[1]
  GI50: > 100 µM (inactive)
[2]
  GI50: > 100 µM
[3]
  GI50: > 100 µM (inactive)
[4]
  GI50: > 100 µM (inactive)
[5]
  GI50: > 100 µM (inactive)
[6]
  GI50: > 100 µM (inactive)
[7]
  GI50: > 100 µM (inactive)
[8]
  GI50: > 100 µM (inactive)
[9]
  GI50: 88.9 µM (inactive)
[10]
  GI50: > 100 µM (inactive)
[11]
  GI50: > 100 µM (inactive)
[12]
  GI50: > 100 µM (inactive)
[13]
  GI50: > 100 µM (inactive)
[14]
  GI50: > 100 µM (inactive)
[15]
  GI50: > 100 µM (inactive)
[16]
  GI50: > 100 µM (inactive)

## O=C(Cn1c(C(=O)/C=C/c2ccco2)nc2ccccc21)c1ccc(Cl)cc1
[1]
  GI50: 26.5 µM (inactive)
[17]
  GI50: 29 µM (inactive)
[2]
  GI50: 20.6 µM
[3]
  GI50: 15.1 µM (inactive)
[4]
  GI50: 15.8 µM (inactive)
[5]
  GI50: 14.5 µM (inactive)
[6]
  GI50: 3.58 µM (inactive)
[8]
  GI50: 11.9 µM (inactive)
[9]
  GI50: 27.5 µM (inactive)
[11]
  GI50: 31.6 µM (inactive)
[12]
  GI50: 14.4 µM (inactive)
[13]
  GI50: 23.8 µM (inactive)
[14]
  GI50: 19.9 µM (inactive)
[15]
  GI50: 15.2 µM (inactive)
[16]
  GI50: 12.3 µM (inactive)

## O=C1C[C@@]23CCC4(CC2=CCC[C@H]3O1)OCCO4
[1]
  GI50: > 100 µM (inactive)
[2]
  GI50: > 100 µM
[3]
  GI50: > 100 µM (inactive)
[4]
  GI50: > 100 µM (inactive)
[5]
  GI50: > 100 µM (inactive)
[7]
  GI50: > 100 µM (inactive)
[8]
  GI50: > 100 µM (inactive)
[9]
  GI50: > 100 µM (inactive)
[10]
  GI50: > 100 µM (inactive)
[11]
  GI50: > 100 µM (inactive)
[12]
  GI50: > 100 µM (inactive)
[13]
  GI50: > 100 µM (inactive)
[14]
  GI50: > 100 µM (inactive)
[15]
  GI50: > 100 µM (inactive)
[16]
  GI50: > 100 µM (inactive)

## N#C/C(=C/NC(=S)Nc1ccc(S(N)(=O)=O)cc1)C(N)=O
[1]
  GI50: > 100 µM (inactive)
[17]
  GI50: 42.1 µM (inactive)
[2]
  GI50: > 100 µM
[3]
  GI50: > 100 µM (inactive)
[4]
  GI50: > 100 µM (inactive)
[5]
  GI50: > 100 µM (inactive)
[7]
  GI50: > 100 µM (inactive)
[8]
  GI50: > 100 µM (inactive)
[10]
  GI50: > 100 µM (inactive)
[12]
  GI50: > 100 µM (inactive)
[13]
  GI50: > 100 µM (inactive)
[14]
  GI50: > 100 µM (inactive)
[15]
  GI50: > 100 µM (inactive)

## Cc1nc2ccc(S(=O)(=O)Nc3ccccc3Cl)cc2c(=O)n1NC(=O)CNc1ccccc1Cl
[1]
  GI50: > 100 µM (inactive)
[17]
  GI50: > 100 µM (inactive)
[2]
  GI50: > 100 µM
[3]
  GI50: > 100 µM (inactive)
[4]
  GI50: > 100 µM (inactive)
[5]
  GI50: > 100 µM (inactive)
[6]
  GI50: > 100 µM (inactive)
[7]
  GI50: > 100 µM (inactive)
[8]
  GI50: > 100 µM (inactive)
[9]
  GI50: > 100 µM (inactive)
[10]
  GI50: > 100 µM (inactive)
[12]
  GI50: > 100 µM (inactive)
[13]
  GI50: > 100 µM (inactive)
[14]
  GI50: > 100 µM (inactive)
[15]
  GI50: > 100 µM (inactive)
[16]
  GI50: > 100 µM (inactive)

## CCOC(=O)C#Cc1ccccc1
[1]
  GI50: 13.2 µM (inactive)
[2]
  GI50: 8.09 µM
[4]
  GI50: 8.95 µM (inactive)
[5]
  GI50: 33.9 µM (inactive)
[6]
  GI50: 2.94 µM (inactive)
[7]
  GI50: 14.4 µM (inactive)
[8]
  GI50: 7.26 µM (inactive)
[9]
  GI50: 14.8 µM (inactive)
[10]
  GI50: 2.28 µM (inactive)
[11]
  GI50: 19.4 µM (inactive)
[12]
  GI50: 2.54 µM (inactive)
[13]
  GI50: 11.1 µM (inactive)
[14]
  GI50: 10.1 µM (inactive)
[15]
  GI50: 5.55 µM (inactive)
[16]
  GI50: 1.69 µM (inactive)

## COc1ccc(/C=C2\N=C3NC(=O)C(N4CCCCC4)=C(N)N3C2=O)cc1
[1]
  GI50: > 100 µM (inactive)
[17]
  GI50: 24.8 µM (inactive)
[2]
  GI50: > 100 µM
[3]
  GI50: > 100 µM (inactive)
[5]
  GI50: > 100 µM (inactive)
[6]
  GI50: > 100 µM (inactive)
[7]
  GI50: > 100 µM (inactive)
[8]
  GI50: > 100 µM (inactive)
[9]
  GI50: > 100 µM (inactive)
[10]
  GI50: > 100 µM (inactive)
[11]
  GI50: > 100 µM (inactive)
[12]
  GI50: > 100 µM (inactive)
[13]
  GI50: 52.8 µM (inactive)
[14]
  GI50: > 100 µM (inactive)
[15]
  GI50: > 100 µM (inactive)

## Cc1nn(-c2ccccc2)c2nc3ccc(Cl)cc3c(-c3ccccc3)c12
[1]
  GI50: > 100 µM (inactive)
[17]
  GI50: > 100 µM (inactive)
[2]
  GI50: > 100 µM
[3]
  GI50: > 100 µM (inactive)
[4]
  GI50: > 100 µM (inactive)
[6]
  GI50: > 100 µM (inactive)
[8]
  GI50: > 100 µM (inactive)
[9]
  GI50: > 100 µM (inactive)
[10]
  GI50: > 100 µM (inactive)
[11]
  GI50: > 100 µM (inactive)
[12]
  GI50: > 100 µM (inactive)
[13]
  GI50: > 100 µM (inactive)
[14]
  GI50: > 100 µM (inactive)
[15]
  GI50: > 100 µM (inactive)
[16]
  GI50: > 100 µM (inactive)

## COc1cc([C@@H]2c3cc4c(cc3[C@@H](Nc3ccc(Cl)cc3C(=O)c3ccccc3)[C@H]3COC(=O)[C@H]23)OCO4)cc(OC)c1OC
[1]
  GI50: 0.501 µM (active)
[2]
  GI50: 0.308 µM
[3]
  GI50: 0.417 µM (active)
[4]
  GI50: 0.342 µM (active)
[5]
  GI50: 0.998 µM (active)
[6]
  GI50: 0.37 µM (active)
[7]
  GI50: 0.601 µM (active)
[8]
  GI50: 0.43 µM (active)
[9]
  GI50: 0.408 µM (active)
[10]
  GI50: > 100 µM (inactive)
[11]
  GI50: > 100 µM (inactive)
[12]
  GI50: > 100 µM (inactive)
[13]
  GI50: 0.241 µM (active)
[14]
  GI50: 0.395 µM (active)
[15]
  GI50: 0.518 µM (active)
[16]
  GI50: 2.34 µM (inactive)
